According to patent US20020055528A1, “Artemisinin analogs having antimalarial, antiproliferative, and antitumor activities and chemoselective methods of making the same” (priority 1999, published 2002):

Tests used:
SK-MEL2 = experiment: NCI 60 cell line screen (SRB), Melanoma; format: cell-based; conditions: PG=0
MDA-MB231/ATCC = experiment: NCI 60 cell line screen (SRB), Breast Cancer; format: cell-based; conditions: MDA- (first line of MDA-MB231/ATCC); PG=0
NCI-H322M = experiment: NCI 60 cell line screen (SRB), Non-Small Cell Lung Cancer; format: cell-based
SK-MEL-28 = experiment: NCI 60 cell line screen (SRB), Melanoma; format: cell-based
K-562 = experiment: NCI 60 cell line screen (SRB), Leukemia; format: cell-based
UACC-257 = experiment: NCI 60 cell line screen (SRB), Melanoma; format: cell-based; conditions: PG=0
NCI-H522 = experiment: NCI 60 cell line screen (SRB), Non-Small Cell Lung Cancer; format: cell-based
P. berghei = conditions: P. berghei-infected mice; parasitemia 90 percent suppressed; cited from earlier work
60 cell line panel = experiment: NCI 60 cell line screen (SRB), whole panel; format: cell-based; conditions: panel summary
Method: The screening assay is performed on 96-well microtitre plates. Relatively high initial inoculation densities are used, in order to permit measurement of “time-zero” values and to enhance the screen's ability to detect and provide some differentiation between antiproliferative and cytotoxic response parameters. […] The inoculated microtitre plates are pre-incubated for 24 hours at 37θC prior to drug additions. The five drug dilutions tested routinely range from 10^−4 to 10^−8 molar. Higher or lower concentration ranges may be selected on a nonroutine basis if appropriate solubility and/or prior biological information or other screening data so dictate. Duplicate wells are prepared for all concentrations, (concentration is often denoted by placing brackets around a number); “time-zero” and “no drug” controls are also provided for each test. The minimum amount of compound required for a one-time evaluation in the routine screen can be calculated from the knowledge that each test requires a total of approximately 40 ml (0.04 liter) of cell culture medium containing the highest desired drug concentration. Thus, the amount (grams) of sample required (assuming an upper test concentration limit of 10^−4 M) is: molecular weight of compound×[…]. After a 48 hour incubation (37θC) with the test compound, the cells are fixed in situ to the bottoms of the microtitre wells by addition of 50 ul of either 50% trichloroacetic acid (for adherent cell lines) or 80% trichloroacetic acid (for settled cell suspension lines), followed by incubation for 60 minutes at 4θC. The cellular protein in each well is assayed using a sulforhodamine B (SRB) stain procedure. Briefly, after discarding the supernatants, the microtitre plates are washed 5 times with deionized water and air-dried. One hundred microliters of SRB solution (0.4% w/v in 1% acetic acid) is added to each microtitre well and incubated for 10 minutes at room temperature. Unbound SRB is removed by washing 5 times with 1 % acetic acid. The plates are air-dried, the bound stain is solubilized with Tris buffer, and the optical densities read at 515 nm. SRB is a bright pink anionic dye which, in dilute acetic acid, binds electrostatically to the basic amino acids of TCA-fixed cells. Cryopreserved master stocks of all the lines are maintained, and cultures used for screening are replaced from the master stock after no more than twenty passages in the screening laboratory. The cell line panel consists of 60 lines, organized into nine, disease-related subpanels including leukemia, non-small-cell lung cancer, colon, CNS, melanoma, ovarian, renal, prostate and breast cancers.
The response parameters G150 and LC50 are interpolated values representing the concentrations at which the percentage growth (PG) is +50 and −50, respectively:
GI50 is the concentration for which the PG=+50. At this value the increase from time tzero, in the number or mass of cells in the test well is only 50% as much as the corresponding increase in the control well during this period of the experiment, see Table II. A drug effect of this intensity is interpreted as primary growth inhibition.
TGI is the concentration for which PG=0. At this value the number or mass of cells in the well at the end of the experiment equals the number or mass of cells in the well at time tzero, see Table III. A drug effect of this intensity is regarded as cytostasis.
LC50 is the concentration for which the PG=−50. At this value, the number or mass of cells in the test well at the end of the experiment is half that at time tzero, see Table IV. This is interpreted as cytotoxicity.

SNB-75 = experiment: NCI 60 cell line screen (SRB), CNS Cancer; format: cell-based; conditions: PG=0
HCT-116 = experiment: NCI 60 cell line screen (SRB), Colon Cancer; format: cell-based; conditions: PG=0
HL-60(TB) = experiment: NCI 60 cell line screen (SRB), Leukemia; format: cell-based
IGROVI = experiment: NCI 60 cell line screen (SRB), Ovarian Cancer; format: cell-based
COLO 205 = experiment: NCI 60 cell line screen (SRB), Colon Cancer; format: cell-based
OVCAR-5 = experiment: NCI 60 cell line screen (SRB), Ovarian Cancer; format: cell-based

C[C@@H]1CC[C@H]2[C@@H](C)C(=O)O[C@@H]3O[C@]4(C)CC[C@@H]1[C@]32OO4 [Artemisinin, artemisinin]
Log10TGI (SK-MEL2): >−4.00 log10M
Log10TGI (MDA-MB231/ATCC): −4.00 log10M
Log10TGI (NCI-H322M; PG=0): >−4.00 log10M
Log10GI50 (NCI-H322M; PG=+50): >−4.00 log10M
Log10TGI (SK-MEL-28; PG=0): >−4.00 log10M
Log10GI50 (SK-MEL-28; PG=+50): >−4.00 log10M
Log10GI50 (SK-MEL-28; Table IV (LC50, PG=−50)): >−4.00 log10M
Log10TGI (K-562; PG=0): −4.00 log10M
Log10GI50 (K-562; PG=+50): −4.33 log10M
Log10GI50 (K-562; Table IV (LC50, PG=−50)): >−4.00 log10M
Log10TGI (UACC-257): >−4.00 log10M
Log10TGI (NCI-H522; PG=0): >−4.00 log10M
Log10GI50 (NCI-H522; PG=+50): >−4.00 log10M
Log10GI50 (NCI-H522; Table IV (LC50, PG=−50)): >−4.00 log10M
SD90 (P. berghei): 6.20 mg/kg
Delta of Log10GI50 (Table IV) (60 cell line panel; Table IV (LC50)): −4.00
Range of Log10GI50 (Table IV) (60 cell line panel; Table IV (LC50)): 0.00
Delta of Log10GI50 (60 cell line panel): −4.07
Delta of Log10TGI (60 cell line panel): −4.00
Range of Log10GI50 (60 cell line panel): 0.73
Range of Log10TGI (60 cell line panel): 0.06
Log10TGI (SNB-75): >−4.00 log10M
Log10TGI (HCT-116): >−4.00 log10M
Log10TGI (HL-60(TB); PG=0): −4.00 log10M
Log10GI50 (HL-60(TB); PG=+50): −4.26 log10M
Log10GI50 (HL-60(TB); Table IV (LC50, PG=−50)): >−4.00 log10M
Log10TGI (IGROVI; PG=0): >−4.00 log10M
Log10GI50 (IGROVI; PG=+50): −4.31 log10M
Log10GI50 (IGROVI; Table IV (LC50, PG=−50)): >−4.00 log10M
Log10TGI (COLO 205; PG=0): >−4.00 log10M
Log10GI50 (COLO 205; PG=+50): >−4.00 log10M
Log10GI50 (COLO 205; Table IV (LC50, PG=−50)): >−4.00 log10M
Log10TGI (OVCAR-5; PG=0): >−4.00 log10M
Log10GI50 (OVCAR-5; PG=+50): >−4.00 log10M
Log10GI50 (OVCAR-5; Table IV (LC50, PG=−50)): >−4.00 log10M
